US8124764B2, “Fused heterocyclyc inhibitor compounds” (Gilead Sciences, Inc., priority 2008, dated 2012)

Tests used:
[1] = target: CDK2 (Homo sapiens, UniProt P24941); experiment: CDK2 inhibition; assay type: biochemical
[2] = target: HDAC 1 (Homo sapiens, UniProt Q13547); experiment: HDAC 1 inhibition assay with about 3 hours enzyme/compound preincubation (fluorophore/quencher peptide substrate); assay type: biochemical; conditions: 3-hour preincubation of enzyme with compound; read-out: HDAC 1 inhibitory activity (IC50 [μM]) (3-hour preincubation)
Description: HDAC inhibitory activity of the compound of Example 1 was measured by two types of assays in which HDAC 1 was used as a target molecule. The first assay was carried out without preincubation after addition of the enzyme. The test compound was suspended in and titrated in dmso. It was then spotted into a 384-well test plate. The enzyme, HDAC 1, was diluted in assay buffer containing 25 mM Tris-HCl (pH 8.0), 137 mM NaCl, 2.7 mM KCl, and 0.01% Tween-20 and added to the pre-spotted compound. The peptide substrate containing a fluorophore/quencher pair was diluted in the same assay buffer and added to the compound/enzyme mix initiating the reaction. The reaction incubated at room temperature for about 45 minutes. A concentrated developer solution was diluted in the assay buffer, and added to the reaction. The reaction was incubated at room temperature for about 15 minutes and relative fluorescence was read on an instrument reader.
The second assay is similar to the first assay described above, except that preincubation is carried out for about 3 hours after the enzyme is introduced. The test compound was suspended in, and titrated in DMSO. It was then spotted into a 384-well test plate. The enzyme, HDAC 1, was diluted in the same assay buffer as used in the previous assay and added to the pre-spotted compound. The enzyme/compound mix was incubated at room temperature for about 3 hours. The peptide substrate containing a fluorophore/quencher pair was diluted in the assay buffer and added to the compound/enzyme mix initiating the reaction. The reaction incubated at room temperature for 45 minutes. A concentrated developer solution was diluted in the assay buffer, and added to the reaction. The reaction was incubated at room temperature for about 15 minutes and relative fluorescence was read on an instrument reader.

Sequence of HDAC 1 (Q13547 whole entry, species assumed): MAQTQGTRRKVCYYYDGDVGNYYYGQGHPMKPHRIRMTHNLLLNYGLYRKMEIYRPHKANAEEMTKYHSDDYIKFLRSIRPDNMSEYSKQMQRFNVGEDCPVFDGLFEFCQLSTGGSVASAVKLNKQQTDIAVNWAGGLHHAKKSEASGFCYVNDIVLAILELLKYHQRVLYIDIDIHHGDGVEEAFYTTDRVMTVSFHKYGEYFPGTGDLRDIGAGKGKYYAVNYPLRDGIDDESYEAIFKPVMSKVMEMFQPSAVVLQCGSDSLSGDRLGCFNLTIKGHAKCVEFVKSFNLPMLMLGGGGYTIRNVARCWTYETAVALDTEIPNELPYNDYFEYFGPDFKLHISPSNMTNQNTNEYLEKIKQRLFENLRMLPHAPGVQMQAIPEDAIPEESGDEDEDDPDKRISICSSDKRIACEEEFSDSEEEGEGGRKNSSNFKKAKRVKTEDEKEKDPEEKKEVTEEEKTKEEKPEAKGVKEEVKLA

| Compound | IC50 [1] [µM] | IC50 [2] [µM] |
| --- | --- | --- |
| Cc1nc2cc(CN(C)C)ccn2c1-c1ccnc(Nc2ccc(C(=O)Nc3ccccc3N)cc2)n1 [Example 46, N-(2-Amino-phenyl)-4-[4-(7-dimethylaminomethyl-2-methyl-imidazo[1,2-a]pyridin-3-yl)-pyrimidin-2-ylamino]-benzamide] | 1.61 | 0.13 |
| Cc1nc2cc(C(=O)O)ccn2c1-c1ccnc(Nc2ccc(C(=O)Nc3ccccc3N)cc2)n1 [Example 28, 3-{2-[4-(2-Amino-phenylcarbamoyl)-phenylamino]-pyrimidin-4-yl}-2-methyl-imidazo[1,2-a]pyridine-7-carboxylic acid] | 2.53 | 0.621 |
| COCCOc1ccc2nc(C)c(-c3ccnc(Nc4ccc(C(=O)Nc5ccccc5N)cc4)n3)n2c1 [Example 41, N-(2-Amino-phenyl)-4-{4-[6-(2-methoxy-ethoxy)-2-methyl-imidazo[1,2-a]pyridin-3-yl]-pyrimidin-2-ylamino}-benzamide] | 4.34 | 0.877 |
| Cc1nc2ccc(C(=O)N3CCN(C)CC3)cn2c1-c1ccnc(Nc2ccc(C(=O)Nc3ccccc3N)cc2)n1 [Example 39, N-(2-Amino-phenyl)-4-{4-[2-methyl-6-(4-methyl-piperazine-1-carbonyl)-imidazo[1,2-a]pyridin-3-yl]-pyrimidin-2-ylamino}-benzamide] | 7.94 | 0.563 |
| Cc1nc2ccccn2c1-c1ccnc(Nc2ccc(C(=O)Nc3ccccc3N)cc2F)n1 [Example 34, N-(2-Amino-phenyl)-3-fluoro-4-[4-(2-methyl-imidazo[1,2-a]pyridin-3-yl)-pyrimidin-2-ylamino]-benzamide] | 0.86 | 1.56 |
| Cc1nc2ccccn2c1-c1ccnc(Nc2ccc(C(=O)NO)cc2F)n1 [Example 33, 3-Fluoro-N-hydroxy-4-[4-(2-methyl-imidazo[1,2-a]pyridin-3-yl)-pyrimidin-2-ylamino]-benzamide] | 0.22 | 0.126 |
| Cc1nc2cc(C(=O)NCCN3CCOCC3)ccn2c1-c1ccnc(Nc2ccc(C(=O)Nc3ccccc3N)cc2)n1 [Example 25, 3-(2-(4-(2-aminophenylcarbamoyl)phenylamino)pyrimidin-4-yl)-2-methyl-N-(2-morpholinoethyl)imidazo[1,2-a]pyridine-7-carboxamide] | 1.03 | 0.128 |
| COc1ccn2c(-c3ccnc(Nc4ccc(C(=O)Nc5ccccc5N)cc4)n3)c(C(F)(F)F)nc2c1 [Example 48, N-(2-Amino-phenyl)-4-[4-(7-methoxy-2-trifluoromethyl-imidazo[1,2-a]pyridin-3-yl)-pyrimidin-2-ylamino]-benzamide] | 0.14 | 0.06 |
| N-hydroxy-2-(4-(2-methylimidazo[1,2-a]pyridin-3-yl)pyrimidin-2-ylamino)oxazole-5-carboxamide [Example 72] | > 40 | 0.4 |
| Cc1nc2ncccn2c1-c1ccnc(Nc2ccc(C(=O)Nc3ccccc3N)cc2)n1 [Example 22, N-(2-Amino-phenyl)-4-[4-(2-methyl-imidazo[1,2-a]pyrimidin-3-yl)-pyrimidin-2-ylamino]-benzamide] | 2.87 | 0.071 |
| Nc1ccccc1NC(=O)c1ccc(N(CC(F)(F)F)c2nccc(-c3cnc4ccccn34)n2)cc1 [Example 58, N-(2-Amino-phenyl)-4-[(4-imidazo[1,2-a]pyridin-3-yl-pyrimidin-2-yl)-(2,2,2-trifluoro-ethyl)-amino]-benzamide] | > 40 | 5.58 |
| Cc1nc2ccccn2c1-c1ccnc(Nc2ccc(C(=O)NO)cn2)c1 [Example 69, N-hydroxy-6-(4-(2-methylimidazo[1,2-a]pyridin-3-yl)pyridin-2-ylamino)nicotinamide] | 0.15 | 0.141 |

Compounds with a lower IC50 [1], results first:

| IC50 [1] [µM] | IC50 [2] [µM] | Compound |
| --- | --- | --- |
| 0.04 | 0.04 | COc1ccn2c(-c3ccnc(Nc4ccc(C(=O)NO)cc4)n3)c(C)nc2c1 [Example 13, N-Hydroxy-4-[4-(7-methoxy-2-methyl-imidazo[1,2-a]pyridin-3-yl)-pyrimidin-2-ylamino]-benzamide] |
| 0.07 | 0.089 | Cc1nc2ccc(C(F)(F)F)cn2c1-c1ccnc(Nc2ccc(C(=O)NO)cc2)n1 [Example 11, N-Hydroxy-4-[4-(2-methyl-6-trifluoromethyl-imidazo[1,2-a]pyridin-3-yl)-pyrimidin-2-ylamino]-benzamide] |
| 0.069 | 0.017 | O=C(NO)c1cccc(Nc2nccc(-c3cnc4ccccn34)n2)c1 [Example 7, N-Hydroxy-3-(4-imidazo[1,2-a]pyridin-3-yl-pyrimidin-2-ylamino)-benzamide] |
| 0.08 | 0.14 | COc1ccc2nc(C)c(-c3ccnc(Nc4ccc(C(=O)NO)cc4)n3)n2c1 [Example 43, N-Hydroxy-4-[4-(6-methoxy-2-methyl-imidazo[1,2-a]pyridin-3-yl)-pyrimidin-2-ylamino]-benzamide] |
| 0.07 | 0.0937 | Cc1nc2cnccn2c1-c1ccnc(Nc2ccc(C(=O)NO)cc2)n1 [Example 19, N-Hydroxy-4-[4-(2-methyl-imidazo[1,2-a]pyrazin-3-yl)-pyrimidin-2-ylamino]-benzamide] |
| 0.06 | 0.128 | Cc1nc2ccccn2c1-c1ccnc(Nc2ccc(C(=O)NO)c(F)c2)n1 [Example 35, 2-Fluoro-N-hydroxy-4-[4-(2-methyl-imidazo[1,2-a]pyridin-3-yl)-pyrimidin-2-ylamino]-benzamide] |
| 0.06 | 0.199 | COc1ccn2c(-c3ccnc(Nc4ccc(C(=O)NO)cc4)n3)c(C(F)(F)F)nc2c1 [Example 49, N-Hydroxy-4-[4-(7-methoxy-2-trifluoromethyl-imidazo[1,2-a]pyridin-3-yl)-pyrimidin-2-ylamino]-benzamide] |
| 0.034 | 0.273 | Cc1nc2cccnn2c1-c1ccnc(Nc2ccc(C(=O)NO)cc2)n1 [Example 17, N-Hydroxy-4-[4-(2-methyl-imidazo[1,2-b]pyridazin-3-yl)-pyrimidin-2-ylamino]-benzamide] |
| 0.07 | 0.31 | Cc1nc2ccccn2c1-c1ccnc(Nc2ccc(C(=O)NO)s2)n1 [Example 52, N-hydroxy-5-(4-(2-methylimidazo[1,2-a]pyridin-3-yl)pyrimidin-2-ylamino)thiophene-2-carboxamide] |
